row,Compound,melting point [°C]
1,CCCCCCCCCCCC=CC(O)C(COC1OC(CO)C(O)C(O)C1O)NC(=O)CCCCCCCCCCCCCCC (stereo not drawn),207 to 209
2,COc1ccc(Cc2nc3c(c4c2[nH]c2ccccc24)CCC(C)(C)C3)cc1,158
3,CCCC(CCC)Nc1cc(C(=O)OC)ccc1N1C(=O)CCC1(CO)CO,139 to 140
4,NC(=O)c1cc(C(F)(F)F)cc(F)c1F,128 to 130
5,CC(C)(C)OC(=O)N1CCN(c2c(F)cc(N3CC(CN=[N+]=[N-])OC3=O)cc2F)CC1 (stereo not drawn),115 to 117
6,COC(=O)c1ccc(Cc2c(C(=O)OC)n(-c3ccccc3)c3nc(C)ccc3c2=O)cn1,177 to 178
7,COc1n[nH]cc1-c1ccccc1,150
8,CN1C(=S)N(C)C2(c3ccccc3)CCCN12 (stereo not drawn),83 to 85
9,Cc1cc(Nc2nccc(-c3sc(-c4cccnc4)nc3C)n2)ccc1N1CCCCC1,200 to 201
10,COc1ccc(CC(=O)NC(NC(Cc2ccccc2C)=NC#N)C(C)(C)C)cc1 (stereo not drawn),199 to 201
11,NC(N)=NC(=O)Cc1c(-c2ccccc2Cl)csc1-c1ccc(Oc2ccccc2)cc1,76 to 78
12,CCCCCCCCc1ccc(C(=O)C2CC2C(=O)O)cc1 (stereo not drawn),45 to 47
13,COc1cccc2c1C(C)(C)c1ccccc1C2,62 to 64
14,O=C(O)c1cc(-c2cccc(C(F)(F)F)c2)c(=O)n2ccccc12,228 to 229
15,CCOC(=O)C1CN(C(=O)C(C)(C)C)CCC1=O (stereo not drawn),46 to 50
16,C[C@@H]1CCC[C@H](C)N1CCN1CCN(CCCN2CCCCC2)C1=C(C#N)C#N,106 to 108
17,CCCNc1nc(N)nc2c1ncn2C1CC(F)C(CO)O1 (stereo not drawn),153
18,COc1cc2c(cn1)C(=O)N(C(C)C)C2=O,150 to 152
19,CC(=O)N(C)C1(c2ccccc2)CCN(Cc2ccccc2)CC1,104
20,CCCC12COC(c3ccc(Cl)cc3)(CC1=O)OC2,96
21,Cc1c(-c2ccccc2)c(N2CC[C@H](N(C)C)C2)c2oc(N3CC(O)C3)nc2c1C#N,219 to 221
22,Cc1ccc2c(c1O)NC(O)C1CCCN1C2=O (stereo not drawn),154 to 156
23,S=C1Nc2ccccc2N2CCc3cccc1c32,185 to 186
24,CC1(C)CCc2c(N3CCOCC3)nc3sc4c(NCc5cccc6ccccc56)ncnc4c3c2C1,266 to 267
25,COc1ccc(C(=O)Nc2nc(C(Cl)(Cl)Cl)ns2)cc1,172

row,Compound,melting point [°C]
1,COC(=O)C(Oc1ccc(F)cc1)c1ccc(Oc2ccc(S(C)(=O)=O)cc2)cc1 (stereo not drawn),135 to 137
2,O=C(CCc1ccccc1)Nc1cc(-c2ccccc2)[nH]n1,168 to 170
3,CCOc1cc2cc(CO)cc(-c3ccnc(-n4nc(-c5ccccc5)c5ccccc5c4=O)c3)c2cc1OCC,203 to 204
4,CC(c1oc2ccccc2c(=O)c1-c1cccc(F)c1)n1nc(-c2ccc3[nH]ccc3c2)c2c(N)ncnc21 (stereo not drawn),197 to 199
5,CC(=O)N[C@@H](Cc1ccc2ccccc2c1)C(=O)OCc1cc(C)cc(C)c1,96 to 97
6,C(=Cc1ccc(-c2nc(-c3ccccc3)no2)cc1)c1ccc(-c2nc3ccccn3n2)cc1,287
7,CNc1cc(OC)c(-c2nc(C)c(-c3cccnc3)[nH]2)cc1Cl,205 to 206
8,COc1ccc(-c2nc(-c3ccc(OCCO)cc3O)nc(-c3ccc(OCCO)cc3OCCO)n2)cc1,172
9,CCNC(=O)NNC(=O)c1ccc(Cl)cc1,237 to 239
10,NC(=O)C(Nc1ncccc1[N+](=O)[O-])c1c(Cl)cccc1Cl (stereo not drawn),207
11,CCSCc1ccc(CC(N)C(=O)O)cc1 (racemic),251
12,CC(C)(O)Cn1cnc2c(N)nc3cc(Br)ccc3c21,> 250
13,CN1CC=C(c2cccc(C(F)(F)F)c2)n2ncc(C#N)c21,120 to 122
14,CSc1cc(Cl)nn2c(-c3ccnc(N)c3)c(-c3ccc(F)c(C)c3)nc12,237 to 238
15,Cc1ccc(CC(=O)O)c(OCc2ccc(OCc3nc(-c4ccccc4)oc3C)cc2)n1,138 to 139
16,Cc1cccc(NC(=O)NCC(=O)N(CC(=O)OC(C)(C)C)c2cccc(C(F)(F)F)c2)c1,140
17,CCON1CCC(NC(=O)Cc2c(C)cc(C)cc2C)(C(=O)OC)CC1,131 to 132
18,CCOC(=O)[C@H](Cc1ccc(C(F)(F)F)cc1)[C@@H](O)c1ccncc1 (racemic),78 to 80
19,CCc1cccc(C)c1CNc1cc(OC)nc2c1nc(C)n2C,165 to 166
20,N#Cc1ncc(Cl)cc1F,72 to 73
21,N#CCCc1cccc(-c2nc(=O)c3ccccc3s2)n1,157
22,CN(C)C(=O)C1CC(=O)N(c2cc(C(F)(F)F)cc(C(F)(F)F)c2)C1 (stereo not drawn),84.5 to 86
23,CCNC(=O)CCCNC(=O)CCCNC(=O)OC(C)(C)C,134 to 135
24,C1COCCN2CCOCCOCCN(CCO1)CCSCCSCC2,78 to 80
25,CNC(=O)C(=NOCF)c1ccccc1Oc1ncnc(Oc2ccccc2Cl)c1F,128 to 129

row,Compound,melting point [°C]
1,Nc1cc(F)c(F)c(Cl)c1Cl,94 to 97.5
2,CC(C)c1ccc(Nc2nc(N)nc3c2-c2ccccc2C3)cc1,178 to 180
3,COC1CCN(S(=O)(=O)c2ccc(S(N)(=O)=O)c(Cl)c2)CC1,165 to 167
4,COC(=O)CCc1cc2cc(Cl)ccc2n1S(=O)(=O)c1cccc2ccccc12,88 to 93
5,COc1cc(C(=O)OC2CC3C(=O)NC4(C(=O)NS(=O)(=O)C5CC5)CC4C=CCCCCCC(NC(=O)OC(C)(C)C)C(=O)N3C2)n(OC)n1 (stereo not drawn),149 to 151
6,CC(C)COc1ccccc1C1=NC(=O)C2=NC=NC2=N1,272 to 273
7,O=c1[nH]c(=O)n(Cc2cccc(OCc3noc(-c4ccc(Cl)cc4)n3)c2)o1,159 to 160
8,CCCc1c(SCCCOc2ccc3c(=O)cc(C(=O)OCC)oc3c2CCC)ccc(C(C)=O)c1N,103 to 104
9,Cc1cc(-c2nc3c(C)ccnn3c2-c2ccnc(NC(=O)c3ccc(F)cc3)c2)ccc1F,243 to 244
10,NC(=O)c1ccccc1Sc1ccccc1[N+](=O)[O-],166 to 167
11,CC1C(=S)Nc2c1cc(F)c(F)c2F (stereo not drawn),177 to 178
12,CN1C(=O)CC[C@]2(C)c3ccc(Sc4ccc5nc6ccccc6c(=O)n5n4)cc3CC[C@@H]12,110 to 114
13,CCOC(=O)C(O)=Cc1cc(OCc2ccccc2)ncn1,136 to 137
14,CCOC(=O)N(C)NC1=Nc2sc(CC)cc2C(c2ccccc2Cl)=NC1,172 to 174
15,O=c1oc2ccccc2c2c1CN(CCN1CC3CCCC(C3)C1)CC2,129 to 130
16,CCCC(=O)c1cnc2c(OC)nccc2c1OS(C)(=O)=O,184 to 185
17,Cc1nc(N2CCN(c3ccccc3)C2=O)sc1C(=O)NCc1ccccc1,234 to 236
18,O=C1c2ccccc2C(=O)N1OCc1ccc2c(c1F)OC(c1ccccc1)(c1ccccc1)O2,177 to 179
19,O=c1[nH]c2cnccc2c2nc(-c3ccccc3F)nn12,285 to 287
20,CCCn1cc(-c2nc(C(N)=O)c(N)nc2-c2ccccc2)ccc1=O,> 250
21,CC(C)NCC(O)COc1ccc(CCOC2CCCC2)cc1 (stereo not drawn),66
22,CN1CC(CCN2C(=O)c3ccccc3C2=O)Oc2ncccc2C1=O (stereo not drawn),146 to 147
23,CC(C)c1cccc(C(C)C)c1NC(=O)NCC(c1ccccc1)c1ccccc1,175 to 176
24,O=C(c1ccccc1)c1ccc(OCCCCNS(=O)(=O)c2ccc(Br)cc2)cc1,71 to 73
25,COC(=O)CCCc1cc2nc(Cl)ccc2n1S(=O)(=O)c1ccc(OC)cc1Cl,116 to 118

row,Compound,melting point [°C]
1,COC(=O)C(N)Cc1ccc(OCCN(C)c2nc3ccccc3o2)cc1 (stereo not drawn),95 to 96
2,N=C(N)N(C[C@H]1CC[C@H](C(=O)Nc2ccnc3[nH]ccc23)CC1)C(=O)OCc1ccccc1,160 to 162
3,Nc1nc(SCc2ccccc2)nn1-c1nnc(-c2ccccc2O)s1,198 to 201
4,CC(C)(C)OC(=O)ON=C(C#N)c1cccc2ccccc12,90 to 92
5,Cc1ccc(OCc2c(F)cccc2Cl)c(N)n1,108 to 109
6,CC(C)(C(=O)O)c1ccc(C(=O)C2CC2)cc1,84 to 88
7,O=C1C(C(c2ccccc2)c2ccccc2)NC2CCCC3C(C2)C13 (stereo not drawn),178 to 181
8,CCOC(=O)C1Cc2cc(Cl)ccc2NC1=O (stereo not drawn),173 to 175
9,CC(=O)Nc1nc2c(Oc3cc(-c4ccc(C(F)(F)F)cc4NCc4cncn4Cc4ccccc4)ncn3)cccc2s1,264
10,CCOc1nc2c(N)nc(OCCc3ccccc3)nc2n1CC,161 to 164
11,Cc1ccc(-n2cccc2-c2ccc(S(C)(=O)=O)cc2)cc1C,134 to 137
12,Cc1ccccc1C(=O)Nc1ccc(C(=O)N2Cc3ccccc3Cc3ccccc32)c(Cl)c1,138 to 150
13,O=C(O)c1cccc(Nc2nc(Oc3ccccc3)nc(Oc3cccc(Cl)c3)n2)c1,227 to 230
14,CCCCNC(=O)Nc1cc(Cl)ccc1C(=O)NCC1CCN(C(c2ccccc2)c2ccccc2)CC1,195 to 197
15,O=CNc1nc(-c2ccccc2)c2cc(Cl)ccc2n1,252
16,O=S(=O)(Oc1ccc2sc(-c3ccc(OCCN4CCCC4)cc3)cc2c1)C(F)(F)F,95 to 99
17,O=C(c1ccccc1)c1cc2ccccc2o1,88 to 90
18,CON=C(C)c1cc2c(Cl)cc(F)c(-n3c(=O)cc(C(F)(F)F)n(C)c3=O)c2o1,176 to 178
19,CCOC(=O)[C@H]1CC(OS(=O)(=O)c2ccc(C)cc2)CN1S(=O)(=O)c1ccc(C)cc1 (stereo partly drawn),93
20,CC(CCc1ccccc1)NC(CO)C(O)c1ccc(S(C)(=O)=O)cc1 (stereo not drawn),120 to 122
21,CNC(=S)NCCCSc1cncc(NC(N)=NCC(F)(F)F)n1,165 to 167
22,COc1ccc(/C=N/Nc2nccc(C(F)(F)F)n2)cc1OC1CCCC1,73 to 75
23,O=C(NCC1CCCCC1)c1c(Cl)ccc2nc(N3CC(O)C3)ccc12,206 to 208

# From a melting point compilation (Tetko et al.; mined from patent text by program, amines drawn as free bases though some values may be those of a salt)
